The NIST ThermoML archive (doi:10.1007/s10765-009-0584-4)
Values joined by “and” are separate entries in the source; they are usually repeats but may differ in a detail not shown here. Identical values can stand only once.

Settings: 101.33 kPa, Liquid; for electrical conductivity: Parallel Plate Conductive Cell; for kinematic viscosity: Capillary tube (Ostwald / Ubbelohde) method

CCCCCC[n+]1ccn(C)c1.O=S(=O)([N-]S(=O)(=O)C(F)(F)F)C(F)(F)F
Settings | electrical conductivity | kinematic viscosity [m2/s]
278.15 K | 0.0783 S/m | –
283.15 K | 0.104 S/m | –
288.15 K | 0.136 S/m | –
293.15 K | 0.173 S/m | –
298.15 K | 0.217 S/m and 0.218 S/m | 5.06e-05
303.15 K | 0.268 S/m | 4.04e-05
308.15 K | 0.326 S/m | –
313.15 K | 0.391 S/m | –
313.16 K | – | 2.7e-05
323.15 K | 0.543 S/m | 1.9e-05
333.15 K | 0.726 S/m | 1.39e-05
343.15 K | – | 1.06e-05
